For 51 compounds, IC50 results are on record in patent publication EP0450097B1, “BENZOHETEROCYCLIC COMPOUNDS” (OTSUKA PHARMACEUTICAL CO., LTD., priority 1989, dated 1991).

One experiment deals with T1, V₁ receptor (Rattus norvegicus, UniProt P30560).
T1 construct: Using rat liver plasma membrane preparations; from tissue; host or cells: rat liver plasma membranes
The experiment in a line: V₁ receptor binding assay ([³H]-Arg-vasopressin, rat liver plasma membrane preparations). Particulars: 37°C for 10 minutes. On the procedure: Using rat liver plasma membrane preparations prepared according to Ichihara's method [cf: Akira Ichihara, J. Bio. Chem., 258, 9283 (1983)], the plasma membrane (50000dpm, 2x10⁻¹⁰ M) of [³H]-Arg-vasopressin and a test compound (60 µg, 10⁻⁸-10⁻⁴ M) are incubated at 37°C for 10 minutes in 100 mM Tris-HCl buffer (pH: 8.0, 250 µl) containing 5 mM MgCl₂, 1 mM EDTA and 0.1 % BSA. After incubation, the mixture is filtered three times using the glass filter (GF/F) so as to separate the membrane preparation combined with vasopressin and then washed with the buffer (5 ml). This glass filter is taken out and mixed with liquid scintillation cocktail. The amount of [³H]-vasopressin combined with the membrane is measured by liquid scintillation counter and the rate of the inhibitory effect of the test compound is estimated according to the following equation. Rate of the inhibitory effect (%) = 100 -(C1 - B1)/(C0 - B1)X 100 [formula] C¹: The amount of [³H]-vasopressin combined with the membrane in the presence of the test compound (in prescribed amount). C⁰: The amount of [³H]-vasopressin combined with the membrane in the absence of the test compound. B¹: The amount of [³H]-vasopressin combined with the membrane in the presence of the excess amount of vasopressin (10⁻⁶ M).
(§1) The results are expressed as IC₅₀ values, which is the concentration of the test compound required to achieve the inhibitory effect in the rate of 50 %.

A further experiment deals with T2, V₂ receptor (Rattus norvegicus, UniProt Q00788).
T2 construct: Using rat kidney plasma membrane preparations; from tissue; host or cells: rat kidney plasma membranes
T2 sequence (Q00788 whole entry): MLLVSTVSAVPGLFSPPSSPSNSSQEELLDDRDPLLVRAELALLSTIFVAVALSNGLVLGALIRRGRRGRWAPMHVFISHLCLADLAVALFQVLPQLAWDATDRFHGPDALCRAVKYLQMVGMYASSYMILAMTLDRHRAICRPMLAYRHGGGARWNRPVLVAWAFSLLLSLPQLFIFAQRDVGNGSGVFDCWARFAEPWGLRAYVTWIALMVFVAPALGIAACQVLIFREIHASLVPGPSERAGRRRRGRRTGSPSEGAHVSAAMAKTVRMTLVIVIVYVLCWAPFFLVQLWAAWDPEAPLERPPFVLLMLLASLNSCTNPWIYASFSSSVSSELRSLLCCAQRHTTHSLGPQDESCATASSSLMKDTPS
The experiment in a line: V₂ receptor binding assay ([³H]-Arg-vasopressin, rat kidney plasma membrane preparations). As to conditions: 4°C for 3 hours. On the procedure:
Using rat kidney plasma membrane preparations prepared according to O. Hechter's method [cf: J. Bio. […] After incubation, the mixture is filtered using the glass filter (GF/F) so as to separate the membrane preparation combined with vasopressin and then washed twice with the buffer (5 ml). This glass filter is taken out and mixed with liquid scintillation cocktail. The amount of [³H]-vasopressin combined with the membrane is measured by liquid scintillation counter and the rate of the inhibitory effect of the test compound is estimated according to the following equation. Rate of the inhibitory effect (%) = 100 -(C1 - B1)/(C0 - B1)X 100 [formula] C¹: The amount of [³H]-vasopressin combined with the membrane in the presence of the test compound (in prescribed amount). C⁰: The amount of [³H)-vasopressin combined with the membrane in the absence of the test compound. B¹: The amount of [³H]-vasopressin combined with the membrane in the presence of the excess amount of vasopressin (10⁻⁶ M).
as §1

T1 sequence (P30560 whole entry): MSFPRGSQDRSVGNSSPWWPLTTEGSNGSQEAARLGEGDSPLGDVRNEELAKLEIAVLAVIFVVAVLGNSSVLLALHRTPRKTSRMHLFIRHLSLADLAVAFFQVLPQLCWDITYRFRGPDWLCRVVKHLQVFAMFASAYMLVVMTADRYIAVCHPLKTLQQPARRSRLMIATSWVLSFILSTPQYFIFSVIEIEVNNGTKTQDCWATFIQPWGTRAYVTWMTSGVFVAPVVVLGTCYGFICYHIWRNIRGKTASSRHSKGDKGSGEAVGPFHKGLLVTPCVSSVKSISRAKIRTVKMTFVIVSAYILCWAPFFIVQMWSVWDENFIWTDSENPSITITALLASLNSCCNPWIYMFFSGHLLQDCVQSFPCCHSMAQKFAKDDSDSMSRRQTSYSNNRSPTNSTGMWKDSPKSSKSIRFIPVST

A word on the IC50: it is the concentration that gives 50% inhibition. Higher therefore signals weaker potency in that assay. On to `O=C(Nc1ccc(C(=O)N2CCCCc3ccccc32)cc1)C1CCCCC1` [compound 26], for which the concentration for half-maximal inhibition (IC50) at V₁ receptor worked out at 71 nM; at V₂ receptor, 25 nM.

Take `O=C(Nc1ccc(C(=O)N2CCCCc3ccccc32)cc1)c1ccccc1` [compound 27]: the IC50 at V₁ receptor came out at 95 nM; on V₂ receptor it was 70 nM.

For the compound `Cc1ccccc1C(=O)Nc1ccc(C(=O)N2CCCCc3ccccc32)cc1` [compound 28], the IC50 worked out at 56 nM at V₁ receptor and 18 nM on V₂ receptor.

Take `COc1cccc(C(=O)Nc2ccc(C(=O)N3CCCCc4ccccc43)cc2)c1` [compound 29]: the 50% inhibitory concentration (IC50) at V₁ receptor is 150 nM; on V₂ receptor, 69 nM.

Turning to `O=C(Nc1ccc(C(=O)N2CCCCc3ccccc32)cc1)c1cccc(Cl)c1` [compound 30], the 50% inhibitory concentration (IC50) stood at 150 nM at V₁ receptor and 29 nM at V₂ receptor.

Regarding `O=C(Nc1ccc(C(=O)N2CCCCc3ccccc32)cc1)c1cc(Cl)cc(Cl)c1` [compound 32], the IC50 was 300 nM at V₁ receptor and 16 nM at V₂ receptor.

As to `Cc1ccccc1C(=O)Nc1ccc(C(=O)N2CCCCCc3ccccc32)cc1` [compound 36], the values for the IC50 at V₁ receptor and at V₂ receptor were 410 nM and 28 nM, respectively.

As for `Cc1ccccc1C(=O)Nc1ccc(C(=O)N2CC(C)Cc3ccccc32)cc1` (stereo not shown) [compound 46], the IC50 on V₁ receptor worked out at 400 nM; on V₂ receptor, 18 nM.

On to `O=C(Nc1ccc(C(=O)N2CCCCc3ccccc32)cc1)c1ccccc1Br` [compound 56], for which the IC50 at V₁ receptor was 25 nM; at V₂ receptor it was 37 nM.

In the case of `O=C(Nc1ccc(C(=O)N2CCCCc3ccccc32)cc1)c1cccc([N+](=O)[O-])c1` [compound 57], the IC50 at V₁ receptor worked out at 460 nM; at V₂ receptor, 160 nM.

Take `O=C(Nc1ccc(C(=O)N2CCCCc3ccccc32)cc1)c1cccc(C(F)(F)F)c1` [compound 58]: the half-inhibitory concentration (IC50) worked out at 400 nM at V₁ receptor and 140 nM on V₂ receptor.

As for `CCOc1cccc(C(=O)Nc2ccc(C(=O)N3CCCCc4ccccc43)cc2)c1` [compound 59], the IC50 at V₁ receptor was determined as 310 nM; at V₂ receptor, 240 nM.

For `COc1cc(OC)cc(C(=O)Nc2ccc(C(=O)N3CCCCc4ccccc43)cc2)c1` [compound 60], the figures for the IC50 at V₁ receptor and at V₂ receptor were 180 nM and 150 nM, respectively.

For `O=C(Nc1ccc(C(=O)N2CCCCc3ccccc32)cc1)c1ccc(Cl)cc1Cl` [compound 62], the IC50 at V₁ receptor was determined as 98 nM; at V₂ receptor, 23 nM.

For the compound `O=C(Nc1ccc(C(=O)N2CCCCc3ccccc32)cc1)c1c(F)cccc1Cl` [compound 63], the figures for the IC50 on V₁ receptor and at V₂ receptor were 140 nM and 46 nM, respectively.

`Cc1cccc(C)c1C(=O)Nc1ccc(C(=O)N2CCCCc3ccccc32)cc1` [compound 64]: the values for the IC50 on V₁ receptor and on V₂ receptor were 69 nM and 7 nM, respectively.

`Nc1cccc(C(=O)Nc2ccc(C(=O)N3CCCCc4ccccc43)cc2)c1` [compound 67]: the IC50 on V₁ receptor worked out at 340 nM; at V₂ receptor, 50 nM.

On to `CC(C)NCCCCOc1ccccc1C(=O)Nc1ccc(C(=O)N2CCCCc3ccccc32)cc1` [compound 68], for which the IC50 amounted to 13 nM at V₁ receptor and 190 nM at V₂ receptor.

On to `O=C(Nc1ccc(C(=O)N2CCCCc3ccccc32)cc1)c1cccc(O)c1` [compound 69], for which the IC50 worked out at 66 nM at V₁ receptor and 120 nM on V₂ receptor.

Take `NCCCCOc1ccccc1C(=O)Nc1ccc(C(=O)N2CCCCc3ccccc32)cc1` [compound 70]: the IC50 on V₁ receptor was 41 nM; at V₂ receptor, 12 nM.

On to `CCN(CC)CCOc1ccccc1C(=O)Nc1ccc(C(=O)N2CCCCc3ccccc32)cc1` [compound 71], for which the figures for the IC50 on V₁ receptor and on V₂ receptor were 180 nM and 85 nM, respectively.

As for `CC(=O)NCCCCOc1ccccc1C(=O)Nc1ccc(C(=O)N2CCCCc3ccccc32)cc1` [compound 72], the IC50 was determined as 120 nM at V₁ receptor and 160 nM at V₂ receptor.

For the compound `O=C(Nc1ccc(C(=O)N2CCCCc3ccccc32)cc1)c1ccccc1OCCCCCCN1CCOCC1` [compound 74], the IC50 on V₁ receptor is 100 nM; at V₂ receptor, 510 nM.

As to `CN1CCN(CCCCCCOc2ccccc2C(=O)Nc2ccc(C(=O)N3CCCCc4ccccc43)cc2)CC1` [compound 75], the results for the half-maximal inhibitory concentration (IC50) on V₁ receptor and on V₂ receptor were 69 nM and 300 nM, respectively.

With `COc1cc(C(=O)N2CCCCc3ccccc32)ccc1NC(=O)C1CCCCC1` [compound 76], the IC50 at V₁ receptor amounted to 42 nM; at V₂ receptor it was 17 nM.

For `COc1cc(C(=O)N2CCCCc3ccccc32)ccc1NC(=O)c1ccccc1` [compound 77], the IC50 came to 85 nM at V₁ receptor and 90 nM on V₂ receptor.

Consider `Cc1cc(C(=O)N2CCCCc3ccccc32)ccc1NC(=O)c1ccccc1C` [compound 78], for which the IC50 on V₁ receptor is 100 nM; at V₂ receptor, 84 nM.

Consider `CN1CCCN(C(=O)c2ccc(NC(=O)C3CCCCC3)cc2)c2ccccc21` [compound 88], for which the IC50 came out at 340 nM on V₁ receptor and 21 nM on V₂ receptor.

`Cc1ccccc1C(=O)Nc1ccc(C(=O)N2CCCN(C)c3ccccc32)cc1` [compound 90]: the IC50 at V₁ receptor was determined as 380 nM; at V₂ receptor, 14 nM.

On to `CCN(CC(=O)Nc1ccc(C(=O)N2CCCCc3ccccc32)cc1)c1ccccc1` [compound 114], for which the values for the IC50 at V₁ receptor and at V₂ receptor were 11 nM and 6 nM, respectively.

On to `C=CCN(CC(=O)Nc1ccc(C(=O)N2CCCCc3ccccc32)cc1)c1ccccc1` [compound 115], for which the figures for the half-inhibitory concentration (IC50) on V₁ receptor and at V₂ receptor were 12 nM and 6 nM, respectively.

With `O=C(CNc1ccccc1Cl)Nc1ccc(C(=O)N2CCCCc3ccccc32)cc1` [compound 116], the results for the IC50 on V₁ receptor and on V₂ receptor were 40 nM and 39 nM, respectively.

Consider `CC(=O)OCCCCOc1ccccc1C(=O)Nc1ccc(C(=O)N2CCCCc3ccccc32)cc1` [compound 117], for which the half-maximal inhibitory concentration (IC50) was found to be 220 nM on V₁ receptor and 240 nM at V₂ receptor.

Turning to `NC(=O)COc1ccccc1C(=O)Nc1ccc(C(=O)N2CCCCc3ccccc32)cc1` [compound 119], the figures for the IC50 at V₁ receptor and on V₂ receptor were 49 nM and 59 nM, respectively.

As to `O=C(Nc1ccc(C(=O)N2CCCCc3ccccc32)cc1)c1ccccc1OCCCCO` [compound 120], the IC50 at V₁ receptor is 290 nM; on V₂ receptor, 280 nM.

In the case of `CCOC(=O)COc1ccccc1C(=O)Nc1ccc(C(=O)N2CCCCc3ccccc32)cc1` [compound 121], the IC50 at V₁ receptor turned out to be 450 nM; at V₂ receptor it was 180 nM.

Regarding `CCN(CC)C(=O)COc1ccccc1C(=O)Nc1ccc(C(=O)N2CCCCc3ccccc32)cc1` [compound 124], the IC50 at V₁ receptor turned out to be 150 nM; on V₂ receptor, 130 nM.

With `CN(C)C1CCCN(C(=O)c2ccc(NC(=O)c3cccc(N)c3)cc2)c2ccccc21` (stereo not shown) [compound 292], on V₂ receptor, the IC50 turned out to be 180 nM.

Regarding `CCN(CC)CCOc1cc(C(=O)N2CCCC(N(C)C)c3ccccc32)ccc1NC(=O)c1ccccc1C` (stereo not shown) [compound 294], at V₂ receptor, the IC50 was 330 nM.

On V₂ receptor, `Cc1ccccc1C(=O)Nc1ccc(C(=O)N2CCCC(N(C)CC(=O)N(C)C)c3ccccc32)cc1` (stereo not shown) [compound 295] registered a half-inhibitory concentration (IC50) of 26 nM.

On V₂ receptor, `Cc1ccccc1C(=O)Nc1ccc(C(=O)N2CCCC(N(C)C(=O)Cn3ccnc3)c3ccccc32)cc1` (stereo not shown) [compound 297] registered a 50% inhibitory concentration (IC50) of 51 nM. This IC50 lies about 2-fold higher than the previous one.

`Cc1ccccc1C(=O)Nc1ccc(C(=O)N2CCCC(NC(=O)CN)c3ccccc32)cc1` (stereo not shown) [compound 299] showed an IC50 on V₂ receptor of 220 nM.

On to `CC(=O)Nc1cccc(C(=O)Nc2ccc(C(=O)N3CCCC(N(C)C)c4ccccc43)cc2)c1` (stereo not shown) [compound 300], for which, on V₂ receptor, the IC50 came out at 480 nM.

Regarding `Cc1ccccc1C(=O)Nc1ccc(C(=O)N2CCCC(NC(=O)CNC(=O)OC(C)(C)C)c3ccccc32)cc1` (stereo not shown) [compound 301], on V₂ receptor, the IC50 turned out to be 140 nM.

Regarding `CN(C)C1CCCN(C(=O)c2ccc(NC(=O)Cc3ccccc3)cc2)c2ccccc21` (stereo not shown) [compound 305], the IC50 on V₂ receptor is 38 nM.

Regarding `CN(C)C1CCCN(C(=O)c2ccc(NC(=O)CCc3ccccc3)cc2)c2ccccc21` (stereo not shown) [compound 306], the IC50 on V₂ receptor was 77 nM. Compared with the last compound, the IC50 is about 2-fold higher.

Turning to `CCN(C)C1CCCN(C(=O)c2ccc(NC(=O)c3ccccc3Cl)cc2Cl)c2ccccc21` (stereo not shown) [compound 314], at V₂ receptor, the IC50 turned out to be 96 nM.

Consider `Cc1ccccc1N(C)CC(=O)Nc1ccc(C(=O)N2CCCC(N(C)C)c3ccccc32)cc1` (stereo not shown) [compound 317], for which the half-maximal inhibitory concentration (IC50) at V₂ receptor is 72 nM.

For `CNC1CCCN(C(=O)c2ccc(NC(=O)c3ccccc3C)cc2)c2c(Cl)cccc21` (stereo not shown) [compound 318], on V₂ receptor, the IC50 is 60 nM.

At V₂ receptor, `CN(C)C1CCCN(C(=O)c2ccc(NC(=O)COc3ccccc3)cc2)c2ccccc21` (stereo not shown) [compound 319] returned an IC50 of 58 nM. The IC50 values of the last two compounds are within 1.5-fold of each other.

For `CNC1CCCCN(C(=O)c2ccc(NC(=O)c3ccccc3C)cc2)c2ccccc21` (stereo not shown) [compound 320], the IC50 at V₂ receptor came to 39 nM. The IC50 values of the last two compounds are within 1.5-fold of each other.
